{
  "source": "patent US5281613A",
  "about": "“Heterocyclic compounds” (Imperial Chemical Industries PLC, priority 1991, dated 1994)",
  "key": {"[1]": {"test_system": "angiotensin II-induced pressor responses", "assay": "Test C: antagonism of angiotensin II-induced pressor responses in rats", "type": "in vivo", "details": "iv, rat, i.v. administration", "text": "The antagonism of one or more of the physiological actions of AII and, in particular, the antagonism of the interaction of AII with the receptors which mediate its effects on a target tissue, may be assessed using one or more of the following, routine laboratory procedures: Test C This in vivo test involves using terminally-anaesthetised or conscious rats in which an arterial catheter has been implanted under anaesthesia for the measurement of changes in blood pressure. The AII antagonistic effects of the test compound following oral or parenteral administration, are assessed against angiotensin II-induced pressor responses. To ensure that the effect is specific, the effect of the test compound on vasopressin-induced pressor responses may also be determined in the same preparation."}, "[2]": {"target": "T1, AII receptors (guinea pig adrenal gland cell surface membrane fraction) (Cavia porcellus, UniProt Q9WV26)", "T1 construct": "from tissue; host or cells: guinea pig adrenal gland, cell surface membrane fraction", "T1 sequence (Q9WV26 1-359)": "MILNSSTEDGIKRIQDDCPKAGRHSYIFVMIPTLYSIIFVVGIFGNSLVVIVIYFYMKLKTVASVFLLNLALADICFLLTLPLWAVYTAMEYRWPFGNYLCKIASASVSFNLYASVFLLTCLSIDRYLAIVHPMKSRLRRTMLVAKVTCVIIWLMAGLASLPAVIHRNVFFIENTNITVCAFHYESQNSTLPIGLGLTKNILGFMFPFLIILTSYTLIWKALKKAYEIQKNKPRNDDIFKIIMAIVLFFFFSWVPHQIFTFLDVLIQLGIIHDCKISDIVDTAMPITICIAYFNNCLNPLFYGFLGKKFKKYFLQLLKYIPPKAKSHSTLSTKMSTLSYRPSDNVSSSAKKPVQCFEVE", "assay": "Test A: in vitro displacement of radiolabelled AII binding to guinea pig adrenal gland cell surface membranes", "details": "read-out: IC50 (concentration for 50% displacement of radiolabelled AII binding)", "method": "The antagonism of one or more of the physiological actions of AII and, in particular, the antagonism of the interaction of AII with the receptors which mediate its effects on a target tissue, may be assessed using one or more of the following, routine laboratory procedures:\nThis in vitro procedure involves the incubation of the test compound initially at a concentration of 100 micromolar (or less) in a buffered mixture containing fixed concentrations of radiolabelled AII and a cell surface membrane fraction prepared from a suitable angiotensin target tissue. In this test, the source of cell surface membranes is the guinea pig adrenal gland which is well known to respond to AII. Interaction of the radiolabelled AII with its receptors (assessed as radiolabel bound to the particlate membrane fraction following removal of unbound radiolabel by a rapid filtration procedure such as is standard in such studies) is antagonized by compounds which also bind to the membrane receptor sites and the degree of antagonism (observed in the test as displacement of membrane-bound radioactivity) is determined readily by comparing the receptor-bound radioactivity in the presence of the test compound at the specified test concentration with a control value determined in the absence of the test compound. […]"}},
  "data": [
    {"compound": "CCc1cc(OCc2ccc3oc(-c4ccccc4-c4nnn[nH]4)c(Br)c3c2)c2c(n1)CCCC2.Cl", "note": "[Example 8, 4-[(3-bromo-2-(2-(1H-tetrazol-5-yl)phenyl)benzofuran-5-yl)methoxy]-2-ethyl-5,6,7,8-tetrahydroquinoline hydrochloride]", "values": [
      {"measurement": "ED50", "setting": "[1]", "result": 8.2, "unit": "mg/kg"},
      {"measurement": "IC50", "setting": "[2]", "result": 30, "unit": "nM"}
    ]}
  ]
}
